In data set [1] the test system is TNF-α. Put plainly: TNF-α production in LPS-stimulated THP-1 macrophages (ELISA). The data set is classed as cell-based. The following applies: Homo sapiens, 1 h pretreatment, then LPS 1 μg/mL 24 h; for inhibition at 8 µg/mL: 8 μg/mL; for inhibition at 4 µg/mL: 4 μg/mL. On the procedure: (§1) To determine the effects of the AMTs 1–8 on the production of TNF-α, IL-6, and IL-1β, THP-1 macrophaghes were pretreated with the compounds and then stimulated with LPS, as the triggering factor to stimulate the cytokines production. The levels of pro-inflammatory cytokines in the cell supernatants were determined using the enzyme-linked immunosorbent (ELISA) kits.
(§2) Figure 2 Meroterpenoids 1–8 inhibit LPS-induced expression of TNF-α, IL-6, and IL-1β in THP-1 macrophages (A, B, and C) respectively. Cells were pretreated for 1 h with the compounds (1, 2, 3, 4, 7, and 8 at 8 μg/mL; 5 and 6 at 4 μg/mL), followed by 24 h treatment with LPS. TNF-α (A), IL-6 (B) and IL-1β (C) contents in the culture medium were determined by ELISA. Dexametasone (DEX) was used as positive control. Data are expressed as means ± SE from three independent experiments. Statistical significance is indicated (+++p < 0.001 and +++< 0.01 vs. Control; respectively * p < 0.05, ** p < 0.01, *** p < 0.001 vs. Control + LPS).
(§3) THP-1 cells were plated at a density of 3 × 10^5 cells/mL in 24-well plates and incubated with PMA (0.2 μM) for 72 h in a humidified atmosphere of 5% CO2 at 37 °C. The macrophages were pre-treated for 1 h with AMTs 1–8 (8 μg/mL for compounds 1, 2, 3, 4, 7, and 8, and 4 μg/mL for 5 and 6) and then stimulated with lipopolysaccharide (LPS, 1 μg/mL) for another 24 h. Dexamethasone (Dex) was used as positive reference compound at 1 μM. The viability of cells was greater than 95% throughout the experiment. The levels of TNF-α, IL-6, and IL-1ß in supernatants were measured with enzyme-linked immune-sorbent assay (ELISA) kits (Diaclone GEN-PROBE, Besançon cedex, France) according to the manufacturer’s protocols. The absorbance was determined at 450 nm using a microplate reader. To calculate the concentration of cytokines, a standard curve was constructed using serial dilutions of cytokine standards provided with the kit.

Data set [2] concerns COX-2. The data set can be described thus: COX-2 protein expression in LPS-stimulated THP-1 macrophages (western blot). The data set is classed as cell-based, human. The following applies: 1 h pretreatment, then LPS 1 μg/mL 24 h. The procedure:
COX-2 is the key enzyme regulating the production of prostaglandins, which are the central mediators of inflammation. On the other hand, iNOS enzyme represents an important molecular target closely involved in inflammatory responses. Thus, the effect of the AMTs 1–8 on LPS-induced COX-2 and iNOS protein expression was investigated by western blot analysis.
Figure 3 Effect of meroterpenoids 1–8 on LPS-induced COX-2 and iNOS protein expression in THP-1 macrophages. Cells were pretreated for 1 h with the compounds (1, 2, 3, 4, 7, and 8 at 8 μg/mL; 5 and 6 at 4 μg/mL) and then stimulated with LPS (1 μg/mL). Cytosolic lysates from 24 h-stimulated cells were separated on 10% SDS-PAGE. COX-2, iNOS, and β-actin were detected by western blot analysis. Data are expressed as means ± SE from three independent experiments. Statistical significance is indicated (+++ p < 0.001 and ++ p < 0.01, vs. Control, respectively; * p < 0.05, and ** p < 0.01 vs. Control + LPS).
Western blotting was used to measure the protein levels of COX-2 and iNOS [65]. THP-1 macrophages were plated at a density of 1 × 10^6 cells/mL in six-well plates, treated for 1 h with compounds 1–8 (8 μg/mL for compounds 1, 2, 3, 4, 7, and 8, and 4 μg/mL for compounds 5 and 6), and then stimulated with 1 μg/mL of LPS in medium at 37 °C. After 24 h, the cells were washed with ice-cold PBS, collected, suspended in the lysis buffer (250 mM NaCl, 50 mM Tris (pH 7.5), 0.5 mM EDTA, 5 mM EGTA, 8 mM MgCl2, 1 mM PMSF, 0.01 mg/mL pepstatin A, 0.01 mg/mL leupeptin, 0.01 mg/mL aprotinin, 1% Triton X-100) and centrifuged at 12,000× g at 4 °C for 3 min to yield cell lysates. Proteins concentration in cell lysates was determined by Bio-Rad Protein Assay, based on the method of Bradford (BioRad, Richmond CA, USA). Cytosolic proteins (50 μg) were separated with 10% SDS-polyacrylamide gel electrophoresis and transferred on PVDF membranes. The membranes were then blocked with 5% (w/v) non-fat dry milk in Tris-buffered saline containing 0.1% Tween-20 (pH 7.4) (TBST) buffer at room temperature for 1 h. The membranes were washed three times (10 min) in TBST buffer and incubated with specific primary antibodies anti-COX-2 (1:3000) or anti-iNOS (1:1000) diluted in 5% (w/v) non-fat dry milk in TBST buffer, at 4 °C overnight. Then, the membranes were incubated with peroxidase-conjugated […] goat anti-rabbit IgG (1: 1000) for 1 h at room temperature. To ascertain that blots were loaded with equal amounts of protein lysates, they were also incubated in the presence of the antibody against β-actin protein (1:10,000). After washing the membrane again with TBST buffer (10 min) three times, the antibody was visualized using an enhanced chemiluminescence light-detecting kit (Super-Signal West Pico Chemiluminescent Substrate, Pierce, IL, USA), according to the manufacturer’s instructions and exposed to an X-ray film (GE Healthcare Ltd., Amersham, UK). The protein band densities were quantified using a Scientific Imaging Systems (Biophotonics ImageJ Analysis Software, National Institute of Mental Health, Bethesda, MD, USA).

Data set [3] relates to THP-1 macrophages. Put plainly: Cell viability of THP-1 macrophages (SRB assay). The data set is classed as cell-based, human. The following applies: LPS-stimulated THP-1 macrophages, 0–100 µg/mL, 48 and 72 h, data not shown. On the procedure:
The cytotoxic effect of AMTs 1–8 on LPS-stimulated THP-1 macrophages was determined at different concentrations and incubation times (0–100 µg/mL, 48 and 72 h) using the SRB assay. […] Therefore, in order to rule out cytotoxic effects, compounds 1, 2, 3, 4, 7, and 8 were tested on THP-1 cells at maximum concentration of 8 µg/mL while 5 and 6 were tested at maximum concentration of 4 µg/mL. The viability of THP-1 cells was measured by the SRB assay. The cells were seeded in 96-well plates with the growth medium at a density of 1 × 10^4 cells per well, and differentiation into macrophages was induced by 0.2 μM of phorbol myristate acetate (PMA). Three days after differentiation into macrophages, the cells were treated with various concentrations (0, 3.125, 6.25, 12.5, 25, 50, 100 µg/mL) of the AMTs 1–8 in fresh medium and incubated for another 72 h. Then, the cells were fixed with 50 μL of TCA (50%) and processed, as described in the literature.

The subject of data set [4] is IL-1β. Put plainly: IL-1β production in LPS-stimulated THP-1 macrophages (ELISA). The note with it: Homo sapiens, 1 h pretreatment, then LPS 1 μg/mL 24 h; for inhibition at 8 µg/mL: 8 μg/mL; for inhibition at 4 µg/mL: 4 μg/mL. The data set is classed as cell-based. The procedure:
as §1, §2, §3

As for `COc1c(C)cc(O)cc1C/C=C(\C)CC(=O)/C=C(\C)CCCC(C)=O` [Compound 3, cystomexicone B], the values for the inhibition at 8 µg/mL in data set [1] and in data set [4] were 57.1% and 35.3%, respectively. In addition, the “decrease of COX-2 levels” value in data set [2] (8 μg/mL) is listed as 53.35%. Also, the “concentration up to which cell viability is not affected” value in data set [3] is given as “up to 10 µg/mL”.
For `COc1c(C)cc(O)cc1/C=C/C(C)(O)CC(=O)/C=C(/C)CCCC(C)C(=O)/C=C/C(C)(C)O` (stereo not shown) [Compound 7, cystodione A] the same measures were 42.2 to 43.3%, 44.9%, 58.05% and “up to 10 µg/mL”.
With `COc1c(C)cc(O)cc1C/C=C(\C)CC(=O)/C=C(\C)CCCC(C)(O)C(=O)/C=C/C(C)(C)O` (stereo not shown) [Compound 2, 11-hydroxy-1’-O-methylamentadione], the values for the inhibition at 8 µg/mL in data set [1] and in data set [4] were 64.1% and 84.4%, respectively. Also, the “effect on expression of COX-2 (in words)” value in data set [2] (8 μg/mL) is listed as “significantly down-regulated”. Further, in data set [3], the “concentration up to which cell viability is not affected” value is given as “up to 10 µg/mL”.
Regarding `COc1c(C)cc(O)cc1C/C=C(\C)CC(=O)/C=C(\C)CCCC(C)C(=O)/C=C/C(C)(C)O` (stereo not shown) [Compound 6, amentadione-1′-methyl ether], the values for the inhibition at 4 µg/mL in data set [1] and in data set [4] were 42.2 to 43.3% and 61.1%, respectively. Further, in data set [2] (4 μg/mL), the “decrease of COX-2 levels” value is given as 64.23%. For the same compound, in data set [3], the “concentration up to which cell viability is not affected” value is “up to 6 µg/mL”.
Take `COc1c(C)cc(O)cc1/C=C/C(C)(O)CC(=O)/C=C(\C)CCCC(C)C(=O)/C=C/C(C)(C)O` (stereo not shown) [Compound 8, cystodione B]: the inhibition at 8 µg/mL in data set [1] stood at 52.6%; in data set [4], 44.6%. The “effect on expression of COX-2 (in words)” value in data set [2] (8 μg/mL) was “no significant effect”. The “concentration up to which cell viability is not affected” value in data set [3] is “up to 10 µg/mL”.
For `COc1c(C)cc(O)cc1C/C=C(\C)CC(=O)/C=C(/C)CCCC(C)(O)C(=O)/C=C/C(C)(C)O` (stereo not shown) [Compound 1, usneoidone Z] the same measures were 73.1%, 74.6%, “no significant effect” and “up to 10 µg/mL”.
For `COc1c(C)cc(O)cc1C/C=C(\C)CC(=O)/C=C(/C)CCCC(C)=O` [Compound 4, cystomexicone A], the inhibition at 8 µg/mL in data set [1] lay within 42.2 to 43.3%. Moreover, the “effect on expression of COX-2 (in words)” value in data set [2] (8 μg/mL) is listed as “significantly down-regulated”. In data set [3], the “concentration up to which cell viability is not affected” value is recorded as “up to 10 µg/mL”.
Take `COc1c(C)cc(O)cc1C/C=C(\C)CC(=O)/C=C(/C)CCCC(C)C(=O)/C=C/C(C)(C)O` (stereo not drawn) [Compound 5, 6-cis-amentadione-1′-methyl ether]: the inhibition at 4 µg/mL turned out to be 55.3% in data set [1] and 86% in data set [4]. Further, in data set [2] (4 μg/mL), the “decrease of COX-2 levels” value was determined as 53.52%. The “concentration up to which cell viability is not affected” value in data set [3] is “up to 6 µg/mL”.

The values are drawn from article PMC7230911, “Meroterpenoids from the Brown Alga Cystoseira usneoides as Potential Anti-Inflammatory and Lung Anticancer Agents” (Marine Drugs, 2020).
